Experimental findings from PubChem BioAssay (NCI) are described below.

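Results reflect a 48-hour exposure of cells in 96-well plates to compound at five concentrations. GI50 is the concentration that inhibits growth by half. Definition used: TGI = concentration required for complete inhibition of growth.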 Bounds are passed on as bounds.

Assay in all cases: inhibition of tumour cell growth, NCI panel, 48 h
In assay [1] the test system is ACHN renal.
Assay [2] has as its system HCT-15 colon.
In assay [3] the test system is HT29 colon.
The test system of assay [4] is K-562 leukemia.
For assay [5], the system named is M14 melanoma.
The test system of assay [6] is OVCAR-4 ovarian.
The test system of assay [7] is SNB-19 CNS.
In assay [8] the test system is TK-10 renal.
Assay [9] deals with U251 CNS.
In assay [10] the test system is RPMI-8226 leukemia.

For the compound `COc1ccc(CNc2c3ccccc3nc3ccc(OC)cc23)cc1`, the GI50 in [1] was 2.72 µM; in [2], 2.27 µM; in [3], 2.11 µM; in [4], 2.27 µM; in [5] it was 1.9 µM; in [6], 2.94 µM. The GI50 in assay [7] was 4.14 µM; in [8], 3.77 µM; in assay [9] it was 3.18 µM. Moreover, the TGI in assay [1] was determined as 10.1 µM; in assay [2], 6.18 µM; in assay [3], 10.1 µM; in [4], 11.1 µM; in assay [5], 4.26 µM; in [6], 10.5 µM. Also, the TGI in assay [7] is 16 µM; in assay [8], 13.9 µM; in assay [9] it was 11.2 µM.

On to `CN1CCCCCC(=N\O)/C(=N/O)CCCCC1`, for which the TGI in [1], in assay [2], in assay [3], in assay [4], in [5] and in [7] was above 100 µM each time. In addition, the TGI in assay [8] and in assay [9] was above 100 µM each time.

As for `CCCN1CCN(c2ccc3nc(-c4ccc5nc(-c6cc(OC)ccc6OC)[nH]c5c4)[nH]c3c2)CC1`, the GI50 was 1.69 µM in assay [1]; 1.74 µM in assay [2]; 1.8 µM in assay [3]; 1.78 µM in [5]; 1.98 µM in [6]; 2.17 µM in assay [10]. Further, the GI50 in assay [9] was 1.69 µM. Further, the TGI was found to be 3.06 µM in [1]; 3.36 µM in [2]; 3.46 µM in [3]; 3.31 µM in assay [5]; 3.85 µM in assay [6]; 4.79 µM in assay [10]. This compound yielded a TGI in assay [9] of 3.1 µM.

Consider `COC(=O)C(=O)C(C#N)c1ccc(CC#N)cc1` (stereo not drawn), for which the TGI in assay [1], in assay [2], in [3], in assay [4], in assay [5] and in assay [10] was above 100 µM throughout. In addition, the TGI in assay [7], in [8] and in [9] was above 100 µM each time.

On to `Cc1cc(N2CCCC2)nc(NC2CCCC(Nc3ccnc4cc(Cl)ccc34)C2)n1` (stereo not drawn), for which the GI50 in assay [1] is 1.27 µM; in assay [2], 1.02 µM; in assay [5], 1.14 µM; in [6], 1.52 µM; in assay [10], 0.322 µM; in [7], 1.46 µM. For the same compound, the results for the GI50 in assay [8] and in assay [9] were 2.55 µM and 1.48 µM, respectively. Further, the TGI in assay [1] was 2.79 µM; in assay [2], 2.44 µM; in assay [5], 2.51 µM; in assay [6] it was 5.27 µM; in assay [10], 1.4 µM; in assay [7] it was 3.44 µM. The TGI in assay [8] worked out at 4.56 µM; in assay [9], 2.86 µM.

With `Cc1ccc(NC(=O)CCC/C(CC(=O)c2ccc(Br)cc2)=N/NC(=O)CC#N)cc1`, the TGI in [1], in assay [3], in assay [5], in assay [6], in assay [10] and in [7] was above 100 µM each time. The TGI in assay [8] and in assay [9] was above 100 µM each time.

`CC[O-].CC[O-].O=C1C(c2ccccc2)=C([O-])c2ccccc21.O=C1C(c2ccccc2)=C([O-])c2ccccc21.[Ti+4]`: the GI50 is above 100 µM in assay [1]; above 100 µM in assay [2]; above 100 µM in [3]; above 100 µM in [5]; above 100 µM in assay [6]; 30.3 µM in assay [10]. Besides, the GI50 in assay [9] was above 100 µM. The TGI in [1] was above 100 µM; in assay [2], above 100 µM; in assay [3] it was above 100 µM; in assay [5], above 100 µM; in assay [6] it was above 100 µM; in [10], 99.5 µM. Also, in assay [9], the TGI was above 100 µM.

Regarding `CCCC(C)C[C@@H](C)CC(C)/C=C(\C)c1oc(=O)c(C)c(O)c1C` (stereo partly drawn) (tested in a mixture with another compound), the TGI in assay [1] amounted to 17.9 µM; in assay [3], 27.6 µM; in assay [5] it was 29.1 µM; in [6] it was 26.6 µM; in assay [7], 28 µM; in [8], 33.7 µM. This compound gave a TGI in assay [9] of 27.6 µM.

In the case of `NC(=N\N=C/c1cccc([N+](=O)[O-])c1)/C(N)=N\N=C/c1cccc([N+](=O)[O-])c1`, the GI50 in assay [1], in assay [2], in [3], in [4], in [5] and in assay [10] was above 100 µM in each case. The GI50 in [7], in [8] and in assay [9] was above 100 µM in each case. Further, the TGI in assay [1], in assay [2], in assay [3], in [4], in assay [5] and in assay [10] was above 100 µM throughout. Moreover, the TGI in assay [7], in assay [8] and in [9] was above 100 µM in each case.

Turning to `COC(=O)C12CC3CC(C1)CC(C(=O)OC)(C3)C2`, the TGI in [1], in assay [2], in [3], in assay [5], in [6] and in assay [10] was above 100 µM throughout. Also, the TGI in assay [7], in [8] and in assay [9] was above 100 µM each time.

In the case of `Cc1nc2cc(N)c(F)cc2[nH]1`, the TGI in assay [1], in [3], in assay [4], in assay [6], in [7] and in assay [8] was above 100 µM in each case. The compound further returned a TGI in [9] above 100 µM.

`COc1cc2cc(C(=O)Nc3cc(N)c4ccccc4c3CCCl)[nH]c2c(OC)c1OC`: the GI50 in assay [1] was 0.0184 µM; in assay [2], 0.0382 µM; in assay [3] it was 0.0438 µM; in [4] it was 0.0466 µM; in assay [6] it was 0.0733 µM; in assay [10], below 0.021 µM. The GI50 in assay [7] is 0.122 µM; in assay [8], 0.0932 µM. For the same compound, the TGI was 0.13 µM in [1]; 12.7 µM in assay [3]; 2.5 µM in assay [4]; 0.325 µM in assay [6]; 0.189 µM in [10]; above 10.2 µM in [7]. The same compound gave a TGI in [8] of 6.36 µM.

Regarding `O=C1NC(=S)NC(=O)C1=Cc1cccc2cc3ccccc3cc12`, the TGI is 3.51 µM in assay [1]; 4.07 µM in assay [2]; 3.74 µM in [3]; above 24 µM in assay [4]; 4.89 µM in assay [5]; 4.75 µM in [6]. The TGI is 5.32 µM in assay [7], 3.48 µM in [8] and 3.36 µM in [9].

With `CCn1c(O)c(C=N)c(=O)n(CC)c1=O`, the TGI in assay [1], in assay [2], in assay [3], in assay [4], in [5] and in assay [6] was above 100 µM each time. Besides, the TGI in assay [7] and in assay [8] was above 100 µM throughout.

In the case of `CCOC(=O)C1=C(Nc2ccc(Cl)cc2Cl)OC/C1=N\NS(=O)(=O)c1ccc(C)cc1`, the TGI in assay [1], in assay [2], in assay [3], in assay [4], in assay [5] and in [6] was above 100 µM throughout. Also, the TGI in [7], in assay [8] and in assay [9] was above 100 µM each time.

Turning to `CSc1nc(NC(=O)O)c(N(C(C)=O)C(=O)O)c(=O)n1C`, the TGI in assay [1], in assay [2], in assay [3], in [4], in assay [5] and in [6] was above 100 µM in each case. The TGI in assay [10], in assay [7] and in assay [9] was above 100 µM in each case.

Turning to `Cc1cc2cc3c(C)cc(=O)oc3c(C)c2o1`, the TGI in assay [1], in assay [2], in assay [3], in assay [4], in [5] and in assay [6] was above 100 µM in each case. Further, the TGI in [10], in assay [7] and in assay [9] was above 100 µM each time.

In the case of `O=c1ccnc2c1ccc1[nH]cccc12`, the TGI in [1], in [2], in [3], in assay [4], in assay [5] and in assay [6] was above 100 µM throughout. Further, the TGI in assay [7], in assay [8] and in assay [9] was above 100 µM each time.

As for `Cc1ccc(/C=C/C(=O)c2sc(-c3cccnc3)nc2C)cc1`, the TGI in assay [1], in assay [2], in assay [3], in [4], in assay [10] and in assay [8] was above 100 µM throughout. Further, the TGI in [9] was above 100 µM.
